System: Acinetobacter baumannii strains
Experiment: Antibiotic susceptibility test (CLSI disk diffusion test method, read per CLSI 2016)
Assay type: cell-based
Procedure: Strain identification was performed using a kit such as AT 32 GN system (bioMérieux, Marcy l'Etoile, France). […] In Table 2 below, S, I, and R are the results obtained by evaluating susceptibility to the antibacterial agents, in which ‘S’ means susceptible, ‘I’ means intermediate, and ‘R’ means resistant.
Strain identification was performed using a kit such as ATB 32 GN system (bioMédrieux, Marcy l'Etoile, France). […] In Table 6 below, S, I, and R are the results obtained by evaluating susceptibility to the antibacterial agents, in which ‘S’ means susceptible, ‘I’ means intermediate, and ‘R’ means resistant.
Strain identification was performed using a kit such as ATB 32 GN system (bioMérieux, Marcy l'Etoile, France). […] In Table 10 below, S, I, and R are the results obtained by evaluating susceptibility to the antibacterial agents, in which ‘S’ means susceptible, T means intermediate, and ‘R’ means resistant.

Structure (SMILES): C[C@@H](O)[C@H]1C(=O)N2C(C(=O)O)=C(SCCN=CN)C[C@H]12 [Imipenem, imipenem]
- antibiotic susceptibility class (host strain YMC14/01/C29): R
- antibiotic susceptibility class (host strain YMC14/01/IP122): R
- antibiotic susceptibility class (host strain YMC14/01/L8): R
- antibiotic susceptibility class (host strain YMC14/01/P31): R
- antibiotic susceptibility class (host strain YMC14/01/P117): R
- antibiotic susceptibility class (host strain YMC14/01/P224): R
- antibiotic susceptibility class (host strain YMC14/01/P727): R
- antibiotic susceptibility class (host strain YMC14/01/P728): R
- antibiotic susceptibility class (host strain YMC14/01/R130): R
- antibiotic susceptibility class (host strain YMC14/01/R160): R
- antibiotic susceptibility class (host strain YMC14/01/R198): R
- antibiotic susceptibility class (host strain YMC14/01/R257): R
- antibiotic susceptibility class (host strain YMC14/01/R270): R
- antibiotic susceptibility class (host strain YMC14/01/R324): R
- antibiotic susceptibility class (host strain YMC14/01/R443): R
- antibiotic susceptibility class (host strain YMC14/01/R451): R
- antibiotic susceptibility class (host strain YMC14/01/R560): R
- antibiotic susceptibility class (host strain YMC14/01/R617): R
- antibiotic susceptibility class (host strain YMC14/01/R671): R
- antibiotic susceptibility class (host strain YMC14/01/R732): R
- antibiotic susceptibility class (host strain YMC14/01/R767): R
- antibiotic susceptibility class (host strain YMC14/01/R904): R
- antibiotic susceptibility class (host strain YMC14/01/R905): R
- antibiotic susceptibility class (host strain YMC14/01/R921): R
- antibiotic susceptibility class (host strain YMC14/01/R941): R
- antibiotic susceptibility class (host strain YMC14/01/R958): R
- antibiotic susceptibility class (host strain YMC14/01/R1006): R
- antibiotic susceptibility class (host strain YMC14/01/R1199): R
- antibiotic susceptibility class (host strain YMC14/01/R1659): R
- antibiotic susceptibility class (host strain YMC14/01/R1722): R
- antibiotic susceptibility class (host strain YMC14/01/R1752): R
- antibiotic susceptibility class (host strain YMC14/01/R2429): R
- antibiotic susceptibility class (host strain YMC14/01/R2572): R
- antibiotic susceptibility class (host strain YMC14/01/R2855): R
- antibiotic susceptibility class (host strain YMC14/01/R2945): R
- antibiotic susceptibility class (host strain YMC14/01/R3007): R
- antibiotic susceptibility class (host strain YMC14/01/R3129): R
- antibiotic susceptibility class (host strain YMC14/01/R3317): R
- antibiotic susceptibility class (host strain YMC14/01/R3474): R
- antibiotic susceptibility class (host strain YMC14/01/R3574): R
- antibiotic susceptibility class (host strain YMC14/01/U313): R
- antibiotic susceptibility class (host strain YMC14/01/U318): R
- antibiotic susceptibility class (host strain YMC14/02/L18): R
- antibiotic susceptibility class (host strain YMC14/02/P47): R
- antibiotic susceptibility class (host strain YMC14/02/R1860): R
- antibiotic susceptibility class (host strain YMC14/02/R2417): R
- antibiotic susceptibility class (host strain YMC14/02/R2599): R
- antibiotic susceptibility class (host strain YMC14/02/R2668): R
- antibiotic susceptibility class (host strain YMC14/02/R2758): R
- antibiotic susceptibility class (host strain YMC14/02/R2781): R
- antibiotic susceptibility class (host strain YMC14/02/R3106): R
- antibiotic susceptibility class (host strain YMC14/02/R3419): R
- antibiotic susceptibility class (host strain YMC14/02/U1607): R
- antibiotic susceptibility class (host strain YMC14/03/L9): R
- antibiotic susceptibility class (host strain YMC14/03/P471): R
- antibiotic susceptibility class (host strain YMC14/03/R122): R
- antibiotic susceptibility class (host strain YMC14/03/R217): R
- antibiotic susceptibility class (host strain YMC14/03/R380): R
- antibiotic susceptibility class (host strain YMC14/03/R618): R
- antibiotic susceptibility class (host strain YMC14/03/R2144): R
- antibiotic susceptibility class (host strain YMC14/03/U4616): R
- antibiotic susceptibility class (host strain YMC14/04/R1078): R
- antibiotic susceptibility class (host strain YMC14/04/R1080): R
- antibiotic susceptibility S/I/R (host strain YMC14/06/R2359): R
- susceptibility category (S/I/R) (host strain YMC14/06/R2359): R
- antibiotic susceptibility S/I/R (host strain YMC14/08/R1169): R
- susceptibility category (S/I/R) (host strain YMC14/08/R1169): R
- antibiotic susceptibility S/I/R (host strain YMC14/08/T90): R
- susceptibility category (S/I/R) (host strain YMC14/08/T90): R
- antibiotic susceptibility S/I/R (host strain YMC15/02/R436): R
- susceptibility category (S/I/R) (host strain YMC15/02/R436): R
- antibiotic susceptibility S/I/R (host strain YMC15/02/T28): R
- susceptibility category (S/I/R) (host strain YMC15/02/T28): R
- antibiotic susceptibility S/I/R (host strain YMC15/03/R1604): R
- susceptibility category (S/I/R) (host strain YMC15/03/R1604): R
- antibiotic susceptibility S/I/R (host strain YMC15/09/R1869): R
- susceptibility category (S/I/R) (host strain YMC15/09/R1869): R
- antibiotic susceptibility S/I/R (host strain YMC16/01/P11): R
- susceptibility category (S/I/R) (host strain YMC16/01/P11): R
- antibiotic susceptibility S/I/R (host strain YMC16/01/R123): R
- susceptibility category (S/I/R) (host strain YMC16/01/R123): R
- antibiotic susceptibility S/I/R (host strain YMC16/01/R198): R
- susceptibility category (S/I/R) (host strain YMC16/01/R198): R
- antibiotic susceptibility S/I/R (host strain YMC16/01/R353): R
- susceptibility category (S/I/R) (host strain YMC16/01/R353): R
- antibiotic susceptibility S/I/R (host strain YMC16/01/R380): R
- susceptibility category (S/I/R) (host strain YMC16/01/R380): R
- antibiotic susceptibility S/I/R (host strain YMC16/01/R397): R
- susceptibility category (S/I/R) (host strain YMC16/01/R397): R
- antibiotic susceptibility S/I/R (host strain YMC16/01/R405): R
- susceptibility category (S/I/R) (host strain YMC16/01/R405): R
- antibiotic susceptibility S/I/R (host strain YMC16/03/R4461): R
- susceptibility category (S/I/R) (host strain YMC16/03/R4461): R
- antibiotic susceptibility S/I/R (host strain YMC16/05/R2210): R
- susceptibility category (S/I/R) (host strain YMC16/05/R2210): R
- antibiotic susceptibility S/I/R (host strain YMC16/07/R2512): R
- susceptibility category (S/I/R) (host strain YMC16/07/R2512): R
- antibiotic susceptibility S/I/R (host strain YMC16/09/R2471): R
- susceptibility category (S/I/R) (host strain YMC16/09/R2471): R
- antibiotic susceptibility S/I/R (host strain YMC16/10/R2537): R
- susceptibility category (S/I/R) (host strain YMC16/10/R2537): R
- antibiotic susceptibility S/I/R (host strain YMC16/12/B11422): R
- susceptibility category (S/I/R) (host strain YMC16/12/B11422): R
- antibiotic susceptibility S/I/R (host strain YMC16/12/B11449): R
- susceptibility category (S/I/R) (host strain YMC16/12/B11449): R
- antibiotic susceptibility S/I/R (host strain YMC16/12/B13325): R
- susceptibility category (S/I/R) (host strain YMC16/12/B13325): R
- antibiotic susceptibility S/I/R (host strain YMC16/12/P503): R
- susceptibility category (S/I/R) (host strain YMC16/12/P503): R
- antibiotic susceptibility S/I/R (host strain YMC16/12/R4637): R
- susceptibility category (S/I/R) (host strain YMC16/12/R4637): R
- antibiotic susceptibility S/I/R (host strain YMC17/01/B8053): R
- susceptibility category (S/I/R) (host strain YMC17/01/B8053): R
- antibiotic susceptibility S/I/R (host strain YMC17/01/B10087): R
- susceptibility category (S/I/R) (host strain YMC17/01/B10087): R
- antibiotic susceptibility S/I/R (host strain YMC17/01/B12075): R
- susceptibility category (S/I/R) (host strain YMC17/01/B12075): R
- antibiotic susceptibility S/I/R (host strain YMC17/01/B13454): R
- susceptibility category (S/I/R) (host strain YMC17/01/B13454): R
- antibiotic susceptibility S/I/R (host strain YMC17/01/P518): R
- susceptibility category (S/I/R) (host strain YMC17/01/P518): R
- antibiotic susceptibility S/I/R (host strain YMC17/01/R2812): R
- susceptibility category (S/I/R) (host strain YMC17/01/R2812): R
- antibiotic susceptibility S/I/R (host strain YMC17/02/B14): R
- susceptibility category (S/I/R) (host strain YMC17/02/B14): R
- antibiotic susceptibility S/I/R (host strain YMC17/02/B87): R
- susceptibility category (S/I/R) (host strain YMC17/02/B87): R
- antibiotic susceptibility S/I/R (host strain YMC17/02/B721): R
- susceptibility category (S/I/R) (host strain YMC17/02/B721): R
- antibiotic susceptibility S/I/R (host strain YMC17/02/B4039): R
- susceptibility category (S/I/R) (host strain YMC17/02/B4039): R
- antibiotic susceptibility S/I/R (host strain YMC17/02/B4520): R
- susceptibility category (S/I/R) (host strain YMC17/02/B4520): R
- antibiotic susceptibility S/I/R (host strain YMC17/02/B4864): S
- susceptibility category (S/I/R) (host strain YMC17/02/B4864): S
- antibiotic susceptibility S/I/R (host strain YMC17/02/B8414): R
- susceptibility category (S/I/R) (host strain YMC17/02/B8414): R
- antibiotic susceptibility S/I/R (host strain YMC17/02/P523): R
- susceptibility category (S/I/R) (host strain YMC17/02/P523): R
- antibiotic susceptibility S/I/R (host strain YMC17/02/R541): R
- susceptibility category (S/I/R) (host strain YMC17/02/R541): R
- antibiotic susceptibility S/I/R (host strain YMC17/02/R2392): R
- susceptibility category (S/I/R) (host strain YMC17/02/R2392): R
- antibiotic susceptibility S/I/R (host strain YMC17/03/B4730): R
- susceptibility category (S/I/R) (host strain YMC17/03/B4730): R
- antibiotic susceptibility S/I/R (host strain YMC17/03/B5000): R
- susceptibility category (S/I/R) (host strain YMC17/03/B5000): R
- antibiotic susceptibility S/I/R (host strain YMC17/03/P971): R
- susceptibility category (S/I/R) (host strain YMC17/03/P971): R
- antibiotic susceptibility S/I/R (host strain YMC17/03/R348): R
- susceptibility category (S/I/R) (host strain YMC17/03/R348): R
- antibiotic susceptibility S/I/R (host strain YMC17/03/R585): R
- susceptibility category (S/I/R) (host strain YMC17/03/R585): R
- antibiotic susceptibility S/I/R (host strain YMC17/03/R1888): R
- susceptibility category (S/I/R) (host strain YMC17/03/R1888): R
- antibiotic susceptibility S/I/R (host strain YMC17/03/R3279): R
- susceptibility category (S/I/R) (host strain YMC17/03/R3279): R
- antibiotic susceptibility S/I/R (host strain YMC17/03/R4077): R
- susceptibility category (S/I/R) (host strain YMC17/03/R4077): R
- antibiotic susceptibility S/I/R (host strain YMC17/03/R4607): R
- susceptibility category (S/I/R) (host strain YMC17/03/R4607): R
- antibiotic susceptibility S/I/R (host strain YMC17/04/R488): R
- susceptibility category (S/I/R) (host strain YMC17/04/R488): R
- antibiotic susceptibility S/I/R (host strain YMC17/04/R640): R
- susceptibility category (S/I/R) (host strain YMC17/04/R640): R
- antibiotic susceptibility S/I/R (host strain YMC/17/05/R1095): R
- susceptibility category (S/I/R) (host strain YMC/17/05/R1095): R
